EC50 and Concentration data for six compounds are collected here from ChEMBL document CHEMBL1137170, “Synthesis, biophysical and biological evaluation of 3,6-bis-amidoacridines with extended 9-anilino substituents as potent G-quadruplex-binding telomerase inhibitors” (Bioorg Med Chem Lett, 2004).

SMILES strings stand for the structures.

Experiment [1] concerns the target Telomerase reverse transcriptase (Homo sapiens, UniProt O14746). Kind of experiment: Effective concentration against telomerase by TRAP.
In the next experiment the test system is Nucleic Acid. Kind of experiment: Concentration required for G4-stabilisation in FRET assay. The class given is functional.

Chain of Telomerase reverse transcriptase (O14746 whole entry): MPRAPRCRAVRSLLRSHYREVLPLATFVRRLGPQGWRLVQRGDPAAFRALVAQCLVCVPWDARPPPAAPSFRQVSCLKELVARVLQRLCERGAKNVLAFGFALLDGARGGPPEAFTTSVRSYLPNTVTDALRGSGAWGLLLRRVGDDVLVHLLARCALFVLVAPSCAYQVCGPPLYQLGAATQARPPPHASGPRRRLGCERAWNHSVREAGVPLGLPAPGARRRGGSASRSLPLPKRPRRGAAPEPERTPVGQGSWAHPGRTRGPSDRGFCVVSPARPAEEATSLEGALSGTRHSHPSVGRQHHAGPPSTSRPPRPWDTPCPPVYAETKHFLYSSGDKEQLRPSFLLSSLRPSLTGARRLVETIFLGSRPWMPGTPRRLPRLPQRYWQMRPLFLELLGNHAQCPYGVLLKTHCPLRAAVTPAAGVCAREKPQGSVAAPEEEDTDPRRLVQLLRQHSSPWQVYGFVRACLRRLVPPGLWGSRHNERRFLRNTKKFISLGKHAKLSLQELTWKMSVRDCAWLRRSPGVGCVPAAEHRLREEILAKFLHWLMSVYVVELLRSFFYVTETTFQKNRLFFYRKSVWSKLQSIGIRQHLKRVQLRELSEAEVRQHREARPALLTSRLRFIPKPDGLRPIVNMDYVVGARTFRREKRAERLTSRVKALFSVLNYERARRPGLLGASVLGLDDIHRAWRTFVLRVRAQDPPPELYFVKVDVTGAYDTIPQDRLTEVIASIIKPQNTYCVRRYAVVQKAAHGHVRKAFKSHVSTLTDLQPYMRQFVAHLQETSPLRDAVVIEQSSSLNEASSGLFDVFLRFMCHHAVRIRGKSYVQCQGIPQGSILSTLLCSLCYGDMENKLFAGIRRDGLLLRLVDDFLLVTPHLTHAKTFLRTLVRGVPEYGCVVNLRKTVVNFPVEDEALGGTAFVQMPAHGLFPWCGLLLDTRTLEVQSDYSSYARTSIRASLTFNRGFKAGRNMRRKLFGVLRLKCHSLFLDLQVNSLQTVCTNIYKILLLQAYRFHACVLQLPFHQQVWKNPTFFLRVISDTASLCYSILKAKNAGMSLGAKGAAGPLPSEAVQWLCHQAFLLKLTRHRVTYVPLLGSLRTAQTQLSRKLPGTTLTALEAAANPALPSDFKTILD

Take `CN1CCN(C(=O)CCCCC(=O)Nc2ccc(Nc3c4ccc(NC(=O)CCN5CCCC5)cc4nc4cc(NC(=O)CCN5CCCC5)ccc34)cc2)CC1`: in experiment [1], the response was half-maximal at 165 nM (EC50). This compound also registered a Concentration in the experiment with Nucleic Acid of 0.59 µM.

Consider `O=C(CCCCC(=O)N1CCCC1)Nc1ccc(Nc2c3ccc(NC(=O)CCN4CCCC4)cc3nc3cc(NC(=O)CCN4CCCC4)ccc23)cc1`, for which the EC50 (in general, the concentration giving half of the maximal effect) in experiment [1] stood at 318 nM. The compound also registered a Concentration with Nucleic Acid of 0.72 µM.

`CCN(CC)CCCCCCNC(=O)CCCCC(=O)Nc1ccc(Nc2c3ccc(NC(=O)CCN4CCCC4)cc3nc3cc(NC(=O)CCN4CCCC4)ccc23)cc1` returned an EC50 in experiment [1] of 80 nM. The Concentration in the experiment with Nucleic Acid worked out at 0.49 µM.

Compound `CN(C)c1ccc(Nc2c3ccc(NC(=O)CCN4CCCC4)cc3nc3cc(NC(=O)CCN4CCCC4)ccc23)cc1` gave an EC50 in experiment [1] of 113 nM. The compound also displayed a Concentration with Nucleic Acid of 0.72 µM.

As for `O=C(CCCCC(=O)N1CCOCC1)Nc1ccc(Nc2c3ccc(NC(=O)CCN4CCCC4)cc3nc3cc(NC(=O)CCN4CCCC4)ccc23)cc1`, a half-maximal response in experiment [1] (EC50) required 267 nM. The Concentration in the experiment on Nucleic Acid turned out to be 0.54 µM.

Take `CCN(CC)CCNC(=O)CCCCC(=O)Nc1ccc(Nc2c3ccc(NC(=O)CCN4CCCC4)cc3nc3cc(NC(=O)CCN4CCCC4)ccc23)cc1`: the EC50 in experiment [1] amounted to 98 nM. Moreover, the Concentration in the experiment with Nucleic Acid came out at 0.46 µM.
